Earlier results in patent publication US20110151028A1, “Topical vaginal preparation” (priority 2009, published 2011).

Conditions: carrier: standard hydrophilic transdermal carrier, propylene glycol

## CC[C@H]1OC(=O)[C@H](C)[C@@H](O[C@H]2C[C@@](C)(OC)[C@@H](O)[C@H](C)O2)[C@H](C)[C@@H](O[C@@H]2O[C@H](C)C[C@H](N(C)C)[C@H]2O)[C@](C)(O)C[C@@H](C)C(=O)[C@H](C)[C@@H](O)[C@]1(C)O [erythromycin]
  systemic absorption of transdermally delivered erythromycin: rapid systemic absorption
